Test [1] deals with glucocorticoid receptor (GR)-dependent transcriptional activity, MDA-kb2 cells. The experiment in a line: GR-mediated transcription, luciferase reporter in MDA-kb2 cells (dexamethasone). Conditions: DEX 100 nM. (Reporter assays use an easily measured gene product as a stand-in for the process of interest.)
Test [2] deals with ERα-mediated transcription (3xERE-luciferase), T47D-KBluc cells. The experiment in a line: ER-dependent transcriptional activity, 3xERE-luciferase reporter in T47D-KBluc cells. As to conditions: for effect on E2-induced luciferase activity: until dropping to 20% Emax.
The subject of test [3] is BT-549 cells. The experiment in a line: MTT cell viability assay. It counts as cell-based, human. Conditions: Homo sapiens, BT-549, 72 h, 10%FBS growth media. As for the experimental part: (§1) Straightforward, the tetrazolium salt 3-(4,5-methyltiazol-2yl-)-2,5diphenyl-tetrazolium bromide (MTT) (Applichen, Darmstadt, Germany) was added to cells, incubated for 2–4 h at 37 °C, and lysed in 10% SDS.
On the technique in general: Formazan colour is commonly taken as a measure of viable cells.

The test system of test [4] is Hs-578T cells. As to the kind of experiment: MTT cell viability assay. It counts as cell-based, human. As to conditions: Homo sapiens, Hs-578T, 72 h, 10%FBS growth media. As for the experimental part:
as §1

The test system of test [5] is MCF-7 cells. As to the kind of experiment: MTT cell viability assay. Format: cell-based, human. As to conditions: Homo sapiens, MCF7, 72 h, 10%FBS growth media. As for the experimental part:
as §1

Test [6] deals with MCF-7/BUS cells. The experiment in a line: MTT cell viability assay. As to conditions: Homo sapiens, MCF7/BUS, 72 h, read-out: IC50 (μM) MCF-7/BUS. It counts as cell-based, human. As for the experimental part: as §1
For test [7], the system named is MDA-MB-231 cells. As to the kind of experiment: MTT cell viability assay. Format: cell-based, human. As to conditions: Homo sapiens, MDA-MB-231, 72 h, 10%FBS growth media. As for the experimental part:
as §1

Test [8] relates to SK-BR-3 cells. As to the kind of experiment: MTT cell viability assay. Conditions: Homo sapiens, SK-BR-3, 72 h, 10%FBS growth media. Format: cell-based, human. As for the experimental part:
as §1

Test [9] relates to T47D cells. As to the kind of experiment: MTT cell viability assay. Format: cell-based, human. As to conditions: Homo sapiens, T47D, 72 h, 10%FBS growth media. As for the experimental part:
Straightforward, the tetrazolium salt 3-(4,5-methyltiazol-2yl-)-2,5diphenyl-tetrazolium bromide (MTT) (Applichen, Darmstadt, Germany) was added to cells, incubated for 2–4 h at 37 °C, and lysed in 10% SDS. The mitochondrial metabolization of the tetrazolium salt was determined by the analysis of the optical density at 595 nm, measured with the iMark microplate Reader (Bio–Rad, Irvine, CA, USA).

Test [10] has as its system Ishikawa cells. As to the kind of experiment: MTT cell viability assay. It counts as cell-based, human. As to conditions: Homo sapiens, Ishikawa, read-out: IC50 (μM) ISHIKAWA, 72 h, 10%FBS growth media. As for the experimental part: as §1
The subject of test [11] is MCF-10A cells. As to the kind of experiment: MTT cell viability assay. Format: cell-based, human. Conditions: Homo sapiens, MCF-10A, 72 h, 10%FBS growth media. As for the experimental part:
as §1

In test [12] the test system is VERO cells. The experiment in a line: MTT cell viability assay. It counts as cell-based, monkey. Conditions: Primates, Vero, 72 h, 10%FBS growth media. As for the experimental part:
as §1

Test [13] relates to T47D estrogen-depleted cells. The experiment in a line: E2-induced proliferation of estrogen-depleted cells (AUC of growth kinetics). Format: cell-based. Conditions: Homo sapiens, T47D, 240 h, read-out: AUC (%) EC50 (μM). As for the experimental part:
To monitor long-term growth, human ER+ BC (T47-D, MCF-7, MCF-7/BUS), ER+ endometrial (Ishiwaka, High Point, NC, USA), or non-malignant breast (MCF-10A) cells were seeded at 3000–6000 cells per well. […] When indicated, cells were estrogen-deprived in a 10DCC-FBS supplemented medium for one week. […] Cytotoxicity was monitored by using YOYO-1 (Invitrogen, Waltham, MA, USA). Cell proliferation and cytotoxicity were monitored by sequential real-time microphotographs in an IncuCyte HD real-time imaging system (Essen BioScience, Hertfordshire, UK) for 5–10 days. The area under the curve (AUC) was then analyzed to know both the kinetics and dose-effect relationships. […] Next, cells were treated with VEH (0.05% DMSO) or test compounds for 5–10 days. Spheroid size and cell cytotoxicity were recorded with the Incucyte SX5 Live-Cell Analysis Instrument (Sartorius AG, Göttingen, Germany). To calculate the spheroid growth area, confluence measurements were taken considering the largest brightfield object area (µm^2). Cytotoxicity was monitored by using YOYO-1 (Essen Bioscience, Hertfordshire, UK).

Test [14] deals with alkaline phosphatase (ALP) activity in Ishikawa cells. As to the kind of experiment: Alkaline phosphatase assay. Conditions: E2 10 nM. It counts as cell-based, human. As for the experimental part: Human endometrium cells ([…]) were cultured in MEM without phenol red with Earle's Salts culture, which was supplemented with estrogen-deprived 10 DCC-FBS du-ring 5 days. […] Cells were washed with ice-cold PBS, and Alkaline Phosphatase (ALP) activity was measured by using ALP Assay Kit (Abcam, Cambridge, MA, USA). The substrate p-nitrophenyl phosphate (pNPP) and the ALP enzyme were used to detect ALP activity by the analysis of the optical density at 405 nm in the iMark microplate Reader (Bio-Rad, Irvine, CA, USA). […] Protein concentration was quantified with the bicinchoninic acid assay (BCA) kit (Bio-Rad).

We go through twelve compounds from paper PMC9655618 (Cancers, 2022).

Like-named read-outs stand apart in the source and are kept apart here.

Take `C[C@@H]1C[C@H]2[C@@H]3CCC4=CC(=O)C=C[C@]4(C)[C@@]3(F)[C@@H](O)C[C@]2(C)[C@@]1(O)C(=O)CO` [DEX, dexamethasone, reference compound]: the “maximal luciferase activity or Emax” value in test [1] was 42.07 ± 14.33 fold induction.

`COc1cccc(C2=CC(O)(c3ccc([N+](=O)[O-])cc3)N(Cc3ccccc3)C2=O)c1` (centres unmarked) [compound 46, 1-benzyl-5-hydroxy-3-(3-methoxyphenyl)-5-(4-nitrophenyl)-1H-pyrrol-2(5H)-one]: the “effect on E2-induced luciferase activity” value in [2] was “reduced E2-induced luciferase activity”.

In the case of `COc1ccc(C2(O)C=C(c3ccccc3)C(=O)N2Cc2ccccc2)cc1` (centres unmarked) [compound 8, 1-benzyl-5-hydroxy-5-(4-methoxyphenyl)-3-phenyl-1H-pyrrol-2(5H)-one], the “effect on E2-induced luciferase activity” value in test [2] is “reduced E2-induced luciferase activity”.

For `COc1ccc(N2C(=O)C(c3ccccc3)=CC2(O)c2ccc(OC)cc2)cc1` (centres unmarked) [compound 9, 5-hydroxy-1,5-bis(4-methoxyphenyl)-3-phenyl-1H-pyrrol-2(5H)-one], the IC50 in [3], in [4], in [5], in test [6], in test [7] and in [8] was > 10 µM in each case. Besides, the IC50 in test [9] was > 10 µM.

Consider `O=C1C(c2ccccc2)=CC(O)(c2ccccc2)N1C1CCCCC1` (centres unmarked) [compound 4, 1-cyclohexyl-5-hydroxy-3,5-diphenyl-1H-pyrrol-2(5H)-one], for which the IC50 is > 10 µM in [4]; > 10 µM in test [10]; 7.17 ± 2.07 µM in test [11]; > 10 µM in test [5]; > 10 µM in test [7]; > 10 µM in test [8]. For the same compound, the IC50 in test [9] is > 10 µM; in test [12], > 25 µM. Further, the “effect on E2-induced luciferase activity” value in test [2] is “reduced E2-induced luciferase activity”.

With `COc1ccc(C2=CC(O)(c3ccccc3)N(C3CCCCC3)C2=O)cc1F` (centres unmarked) [compound 16, 1-cyclohexyl-3-(3-fluoro-4-methoxyphenyl)-5-hydroxy-5-phenyl-1H-pyrrol-2(5H)-one], the IC50 in test [3], in test [4], in test [10], in test [5], in [6] and in [7] was > 10 µM in each case. The IC50 in test [8] and in test [9] was > 10 µM throughout. Moreover, the “estrogenic effect on ER-dependent transcriptional activity” value in test [2] (10 μM, absence of E2) is reported as “partial induction of ER-dependent transcriptional activity”.

As for `COc1ccc(N2C(=O)C(c3cccc([N+](=O)[O-])c3)=CC2(O)c2cccc(OC)c2)cc1` (centres unmarked) [compound 38, 5-hydroxy-5-(3-methoxyphenyl)-1-(4-methoxyphenyl)-3-(3-nitrophenyl)-1H-pyrrol-2(5H)-one], the IC50 in [4], in test [10], in test [11], in test [5], in test [7] and in test [8] was > 10 µM in each case. Further, the results for the IC50 in test [9] and in test [12] were > 10 µM and > 25 µM, respectively. Moreover, in [2], the “effect on E2-induced luciferase activity” value is recorded as “reduced E2-induced luciferase activity”.

For the compound `COc1ccc(N2C(=O)C(c3ccccc3OC)=CC2(O)c2ccc([N+](=O)[O-])cc2)cc1` (centres unmarked) [compound 50, 5-hydroxy-3-(2-methoxyphenyl)-1-(4-methoxyphenyl)-5-(4-nitrophenyl)-1H-pyrrol-2(5H)-one], the values for the IC50 in [5] and in test [8] were 6.17 ± 2.66 µM and > 10 µM, respectively. Besides, the “effect on E2-induced luciferase activity” value in test [2] is listed as “reduced E2-induced luciferase activity”.

As to `C[C@]12CC[C@@H]3c4ccc(O)cc4CC[C@H]3[C@@H]1CC[C@@H]2O` [E2, 17β-estradiol, reference compound], the EC50 (commonly the concentration that produces a half-maximal response) in test [13] is 0.0071 nM; in test [2] (Homo sapiens, read-out: EC50 of E2, ER-dependent transcriptional activity, E2 alone (E2+VEH)), 4.48 ± 0.42 pM; in test [2] (read-out: EC50 of E2, ER-dependent transcriptional activity, E2 alone (E2+VEH)), 4.57 ± 0.42 pM. In addition, the “increase of ALP activity” value in [14] is recorded as 30 fold. Moreover, the “maximal activity (Emax) reached by E2” value in test [2] (E2+VEH) is given as 104.90 ± 2.01%. Moreover, the Emax (commonly the maximal effect, on the per cent scale that the assay sets) in test [2] (Homo sapiens, read-out: maximal activity (Emax) reached by E2, E2+VEH) was determined as 99.8 ± 8.44%. In addition, in test [2] (induced by E2), the “maximal luciferase activity or Emax” value is listed as 15.19 ± 1.71 fold induction.

With `COc1ccc(C2=CC(O)(c3cccc([N+](=O)[O-])c3)N(Cc3ccccc3)C2=O)cc1` (centres unmarked) [compound 40, 1-benzyl-5-hydroxy-3-(4-methoxyphenyl)-5-(3-nitrophenyl)-1H-pyrrol-2(5H)-one], the “effect on E2-induced luciferase activity” value in [2] was “reduced E2-induced luciferase activity”.

For the compound `O=C1C(c2ccc3c(c2)OCO3)=CC(O)(c2ccccc2)N1Cc1ccccc1` (centres unmarked) [compound 26, 3-(benzo[d][1,3]dioxol-5-yl)-1-benzyl-5-hydroxy-5-phenyl-1H-pyrrol-2(5H)-one], the IC50 in test [4] is > 10 µM; in [10], 10.1 ± 0.11 µM; in test [5] it was > 10 µM; in test [7], 9.71 ± 0.3 µM; in test [8] it was > 10 µM; in test [9], > 10 µM. In test [2], the “effect on E2-induced luciferase activity” value is “reduced E2-induced luciferase activity”.

`CCCc1c(-c2ccc(O)cc2)nn(-c2ccc(O)cc2)c1-c1ccc(O)cc1` [PPT, 1,3,5-tris(4-hydroxyphenyl)-4-propyl-1H-pyrazole, reference compound]: the EC50 in test [13] was 0.157 nM.
